The source made the active and inactive calls. How the calls were made is not given here.
Each molecule was assayed against glutathione S-transferase (GST-GSH binding) (assay: GST–glutathione interaction disruption – biochemical, multiplex beads, flow cytometry, HPSMTB buffer, profiling panel (AID 1324;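 further: glutathione beads loaded with GST-green fluorescent protein and no fluorescent Bim peptide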)). Details: multiplex bead flow cytometry, MCF.
With `CCOC(=O)c1c2c3c(cccc3[nH]c1=O)C(=O)c1ccccc1-2` the EC50 was “inactive”. Work on `Cc1nc2ncccn2c1-c1csc(Nc2ccc(O)cc2)n1` yielded an EC50 of 0.69 µM. Work on `Cc1cc(C)nc(SCc2cc(=O)c(OC(=O)c3ccc(Cl)c([N+](=O)[O-])c3)co2)n1` yielded an EC50 of 6.13 µM. For `NC(=O)c1sc2nc3c(c(-c4ccco4)c2c1N)CCC3`, the EC50 was “inactive”. In the case of `Cc1ccnc(SCc2cc(=O)c(OC(=O)c3ccc(Cl)c([N+](=O)[O-])c3)co2)n1`, the EC50 is reported as “inactive”. With `O=C(Nc1ccc2nc(-c3ccco3)c(-c3ccco3)nc2c1)NC1CC1` the EC50 was 8.3 µM.

Same assay, conditions: multiplex bead flow cytometry, MCF, stronger effect = higher value, concentration not given here
In the case of `COc1ccc(S(=O)(=O)NCCSc2ccc(Cl)cc2)cc1OC`, the percent span inhibition is reported as “inactive”. For `C1=CC2c3ccccc3NC(c3ccncc3)C2C1` (stereo not drawn), the percent span inhibition was “inactive”. In the case of `CCN1CCN(c2cc(C)c3cc(NC(=S)N4CC(C)CC(C)C4)ccc3n2)CC1` (stereo not drawn), the percent span inhibition is reported as “inactive”. In the case of `COc1ccc(C(=O)/C=C/c2cc(OC)c(O)c(OC)c2)c(F)c1`, the percent span inhibition is reported as “inactive”. With `Cc1ccc(NC2=C(NC(=O)c3ccccc3)C(=O)c3ccccc3C2=O)cc1Cl` the percent span inhibition was “inactive”. For `N/C(Cc1ccc(Cl)c(Cl)c1)=N\OC(=O)c1cccs1`, the percent span inhibition was “inactive”. In the case of `CC(C)CNC(=O)c1cccc(NC(=O)c2ccc(Cl)c([N+](=O)[O-])c2)c1`, the percent span inhibition is reported as “inactive”. `CCOC(=O)c1cc2c(=O)n3ccccc3nc2n(Cc2ccco2)c1=NC(=O)c1ccccc1OC` was tested, and the percent span inhibition was “inactive”. For `CCOC(=O)C1CCN(C(=O)Nc2ccc3nc(-c4ccco4)c(-c4ccco4)nc3c2)CC1`, the percent span inhibition was “inactive”. In the case of `COc1cccc(-n2nnnc2SCC(=O)Nc2cccc(NC(C)=O)c2)c1`, the percent span inhibition is reported as “inactive”. With `O=C(N/N=C/c1ccc(-c2ccccc2[N+](=O)[O-])o1)c1cncc(Br)c1` the percent span inhibition was “inactive”. `CCCc1nnc2n1N=C(c1ccc(-c3cc(Cl)ccc3Cl)o1)CS2` was tested, and the percent span inhibition was “inactive”. With `CC(C)(C)NC(=O)COc1ccc(CNc2ccc3[nH]c(=O)[nH]c3c2)cc1` the percent span inhibition was “inactive”. For `Cc1ccc(C(=O)CCC(=O)Nc2ccc(Cl)c(S(=O)(=O)Nc3cccc(Cl)c3)c2)cc1`, the percent span inhibition was “inactive”. With `Cc1ccccc1-n1nc(SCC(=O)O)sc1=S` the percent span inhibition was “inactive”. For `O=C(Nc1cccc(C(F)(F)F)c1)c1ccc2nc(-c3ccco3)c(-c3ccco3)nc2c1`, the percent span inhibition was “inactive”. With `CSc1n[nH]c2nc3c(c(=O)n12)C1(CCCC1)Cc1ccccc1-3` the percent span inhibition was “inactive”. `CCn1c(SCC(=O)Nc2ccc(C)cc2)nnc1-c1ccc(O)cc1` was tested, and the percent span inhibition was “inactive”. `CCOc1cc(/C=N/NC(=O)c2cccs2)cc([N+](=O)[O-])c1O` was tested, and the percent span inhibition was “inactive”. With `O=C(NCCN1CCOCC1)c1cc(Cl)ccc1[N+](=O)[O-]` the percent span inhibition was “inactive”. `CCCCNC(=O)c1ccc2nc(-c3ccco3)c(-c3ccco3)nc2c1` was tested, and the percent span inhibition was “inactive”. With `O=C1C=C(Nc2ccccc2)C(=O)c2ccccc21` the percent span inhibition was “inactive”. For `O=C(c1ccccc1NS(=O)(=O)c1ccc(Br)s1)N1CCCC1`, the percent span inhibition was “inactive”. In the case of `O=[N+]([O-])c1ccc(N2CCN(c3ccc(O)cc3)CC2)c(Cl)c1`, the percent span inhibition is reported as “inactive”. With `Cc1c(N=C2C=CC(=O)c3ccccc32)c(=O)n(-c2ccccc2)n1C` the percent span inhibition was “inactive”. `COCCNC(=O)CN1CCC(NC(=O)Nc2ccccc2)CC1` was tested, and the percent span inhibition was “inactive”. `Cc1sc(NC(=O)Cn2cnnn2)nc1-c1ccc(Cl)cc1` was tested, and the percent span inhibition was “inactive”. `Cc1ccc2cc(C)c(Sc3nnnn3-c3ccccc3)nc2c1` was tested, and the percent span inhibition was “inactive”. For `CCCOc1ccc(-c2c(C(=O)N/N=C/c3ccc(OC)cc3)nnn2-c2nonc2N)cc1`, the percent span inhibition was “inactive”. `COc1ccc(C(=O)Nc2ccc(NC(=O)c3cccs3)cc2)cc1Cl` was tested, and the percent span inhibition was “inactive”. For `CC(C)c1ccc(C2CC(c3ccc(Br)cc3)=NN2C(N)=S)cc1` (stereo not drawn), the percent span inhibition was “inactive”. In the case of `COc1cc(/C=C2\S/C(=N/S(=O)(=O)c3ccccc3)NC2=O)c([N+](=O)[O-])cc1OC`, the percent span inhibition is reported as “inactive”. In the case of `Cc1ccc(-c2cc(-c3ccc(C)o3)nc(N)c2C#N)cc1`, the percent span inhibition is reported as “inactive”. For `Cc1ccc(C(=O)NNC(=O)c2ccc3ncccc3c2)cc1`, the percent span inhibition was “inactive”. With `CCN(CC)C(=O)COC(=O)c1cc(-c2ccco2)nc2ccccc12` the percent span inhibition was “inactive”. In the case of `Cc1ccc(/C=C2/NC(=O)N(Cc3ccc(Br)cc3)C2=O)o1`, the percent span inhibition is reported as “inactive”. For `Fc1ccc(C2=Nc3cccc4cccc(c34)N2)cc1`, the percent span inhibition was “inactive”. With `O=C(NCCCO)Nc1ccc2nc(-c3ccco3)c(-c3ccco3)nc2c1` the percent span inhibition was “inactive”. For `C/C(=N\NC(=O)COc1ccc(C(C)(C)C)cc1)c1ccc2c(c1)OCCO2`, the percent span inhibition was “inactive”. `Cc1ccc(-c2cc(C(=O)Nc3ccccc3C)c3ccccc3n2)o1` was tested, and the percent span inhibition was “inactive”. In the case of `CN(C)C(=O)N1CCC(C(=O)NC2CCCCCCC2)CC1`, the percent span inhibition is reported as “inactive”. With `CC(C)C(=O)NC(c1ccccc1)c1cc([N+](=O)[O-])c2cccnc2c1O` (stereo not drawn) the percent span inhibition was “inactive”. `N#CC(C#N)=C1C=CC=CN1/C(=C\c1ccco1)C(=O)c1ccccc1` was tested, and the percent span inhibition was “inactive”. In the case of `CCCCCCc1cc2cc(C(=O)Nc3ccccc3)c(=O)oc2cc1O`, the percent span inhibition is reported as “inactive”. For `Cc1ccccc1-n1c(SCc2cccc(F)c2)nc2[nH]ncc2c1=O`, the percent span inhibition was “inactive”. With `COc1cccc(/C=N/NC(=O)c2cc3cc([N+](=O)[O-])ccc3s2)c1O` the percent span inhibition was “inactive”. In the case of `NCC(c1ccccc1)c1c[nH]c2ccccc12` (stereo not drawn), the percent span inhibition is reported as “inactive”. In the case of `Cc1cc2n(c1)CCn1c(C)ccc1-2`, the percent span inhibition is reported as “inactive”. For `O=C(OCc1nc2ccccc2[nH]1)C12CC3CC(CC(C3)C1)C2`, the percent span inhibition was “inactive”. For `COC(=O)c1[nH]c2ccccc2c1NC(=O)c1ccccc1[N+](=O)[O-]`, the percent span inhibition was “inactive”. `Cc1ccc2c(c1)C1CN(C)CCC1N2C(=O)Nc1cccc(Cl)c1` (stereo not drawn) was tested, and the percent span inhibition was “inactive”. For `Cc1ccc(-c2nnc(Cc3ccc(Cl)cc3)o2)cc1`, the percent span inhibition was “inactive”. With `CN(C)c1ccc(/C=C2/SC(=O)N(CCN=C3NS(=O)(=O)c4ccccc43)C2=O)cc1` the percent span inhibition was “inactive”. For `Cc1ccc(Nc2nc(CSc3nnc(-c4cccnc4)n3-c3ccccc3C)cs2)cc1`, the percent span inhibition was “inactive”. In the case of `CCOC(=O)C1(Cc2cccc(OC)c2)CCN(Cc2cccc(OC)c2OC)CC1`, the percent span inhibition is reported as “inactive”. `O=C(C1=NN(c2ccccc2)C2C(=O)N(c3ccccc3)C(=O)C12)c1ccccc1` (stereo not drawn) was tested, and the percent span inhibition was “inactive”. With `CN1CCc2cccc3c2[C@H]1Cc1ccc(O)c(O)c1-3` the percent span inhibition was “inactive”. `COc1ccc(N2CC(C(=O)Nc3nnc(SCC(=O)c4ccccc4)s3)CC2=O)cc1` (stereo not drawn) was tested, and the percent span inhibition was “inactive”. With `O=C(CSc1nnc(-c2ccccc2)c(-c2ccccc2)n1)N1CCc2ccccc21` the percent span inhibition was “inactive”. `COc1ccc(CCNC(=O)c2cc(-c3ccccn3)nc3c(Cl)cccc23)cc1OC` was tested, and the percent span inhibition was “inactive”. In the case of `COc1ccccc1NC1=C(NC(C)=O)C(=O)c2ccccc2C1=O`, the percent span inhibition is reported as “inactive”. `Cc1ccc(C)c(Oc2ncnc(N)c2[N+](=O)[O-])c1` was tested, and the percent span inhibition was “inactive”. For `Cc1ccc(C2=N/C(=C/c3cccs3)C(=O)N2Nc2ccccc2)cc1`, the percent span inhibition was “inactive”. For `COc1ccc(-c2csc(NC(=O)/C(N=Nc3ccccc3)=C(\C)O)n2)cc1`, the percent span inhibition was “inactive”. `COC(=O)c1c(NC(=O)COc2ncnc3ccccc23)sc(C)c1C` was tested, and the percent span inhibition was “inactive”. For `OCCC1CN(Cc2nc3c(s2)CCCC3)CCN1Cc1ccsc1` (stereo not drawn), the percent span inhibition was “inactive”. In the case of `Cc1cc(-c2nnc(CCC(=O)NC(C)c3cccc4ccccc34)o2)no1` (stereo not drawn), the percent span inhibition is reported as “inactive”. For `CN(Cc1ccccc1)C(=O)c1[nH]cnc1C(=O)N[C@@H](CCCCNC(=O)OC(C)(C)C)C(=O)OC(C)(C)C`, the percent span inhibition was “inactive”. In the case of `CCN1CCN(c2cc(C)c3cc(NC(=S)N4CCN(c5ccccc5)CC4)ccc3n2)CC1`, the percent span inhibition is reported as “inactive”. `CCN(CC)c1ccc(-c2nn3c(-c4n[nH]c5c4CCC5)nnc3s2)cc1` was tested, and the percent span inhibition was “inactive”. `Clc1ccc(N=c2ssnc2Cl)nc1` was tested, and the percent span inhibition was “inactive”. With `CNc1ccc(Br)cc(C(=O)/C=C/c2ccc(OC)cc2OC)c1=O` the percent span inhibition was “inactive”. In the case of `OCCN1CCN(CCCc2c3c(cc4c2CCC4)CCC3)CC1`, the percent span inhibition is reported as “inactive”. `Oc1ccc(NCc2ccccc2OCc2ccccc2)cc1` was tested, and the percent span inhibition was “inactive”. `O=[N+]([O-])c1cccc(S(=O)(=O)NCC2CCCO2)c1` (stereo not drawn) was tested, and the percent span inhibition was “inactive”. With `COc1cc2[nH]c(=S)nc(NCCCOC(C)C)c2cc1OC` the percent span inhibition was “inactive”. In the case of `CCN(C(=O)COC(=O)c1cc(-c2ccc(C)o2)nc2ccccc12)C1CCS(=O)(=O)C1` (stereo not drawn), the percent span inhibition is reported as “inactive”. `Cn1c(=O)c(C(=O)COC(=O)c2cc(-c3ccco3)nc3ccccc23)c(N)n(CC2CC2)c1=O` was tested, and the percent span inhibition was “inactive”. With `COc1c(F)c(F)c(C(=O)Nc2ccccc2N2CCN(C(=O)C(C)C)CC2)c(F)c1F` the percent span inhibition was “inactive”. In the case of `CCOc1cccc(CNc2ccc(O)cc2)c1OCc1ccc(Cl)cc1`, the percent span inhibition is reported as “inactive”. In the case of `O=C1C(Cl)=C(Nc2ccccc2O)C(=O)N1c1ccccc1`, the percent span inhibition is reported as “inactive”. In the case of `Cc1ccc(C)n1-c1ccc(N2CCOCC2)cc1`, the percent span inhibition is reported as “inactive”. With `Cn1cccc1CC(=O)N/N=C\c1ccccc1` the percent span inhibition was “inactive”. `CC(C)c1ccc(/C=N/NC(=O)c2ccccc2Cl)cc1` was tested, and the percent span inhibition was “inactive”. `CNC(=O)c1sc(-c2ccccn2)nc1C` was tested, and the percent span inhibition was “inactive”. For `CCc1cccc(CC)c1-n1c(-c2cccnc2)n[nH]c1=S`, the percent span inhibition was “inactive”. In the case of `CC1=NN(c2ccc(C)cc2)C(=O)/C1=C\c1ccc(Br)s1`, the percent span inhibition is reported as “inactive”. `CCN(CC)S(=O)(=O)c1cccc(C(=O)N/N=C/c2ccc(O)c(O)c2O)c1` was tested, and the percent span inhibition was “inactive”. `CC1Nc2ccccc2C(=O)N1NS(=O)(=O)c1ccccc1` (stereo not drawn) was tested, and the percent span inhibition was “inactive”. `Cc1[nH]nc(SCC(=O)NCc2ccc(F)cc2)c1[N+](=O)[O-]` was tested, and the percent span inhibition was “inactive”. For `CC1CC2=C(NC(=S)NC2c2ccccc2F)/C(=C/c2ccccc2F)C1` (stereo not drawn), the percent span inhibition was “inactive”. `Cc1ccc(C(=O)/C=C/c2ccc(-c3ccc(C)cc3)o2)cc1` was tested, and the percent span inhibition was “inactive”.
